Marks after values point to notes of the source that are not given here.

The values below come from patent publication US20040266862A1, “Method of improving animal tissue quality by supplementing the animal diet with mixed tocotrienols” (priority 2003, published 2004).

Holding throughout (assay type): in vivo
For experiment [1], the system named is swine. Description: 2002 swine feed test: fat and TBARS content of raw ground pork. From the text: Applicants conducted a second swine feeding trial to further determine the effects on meat quality of supplementation of a swine diet with alpha-tocopherol (AT), gamma-tocopherol (GT) or mixed tocotrienols (MT). Seventy-two barrows (˜75 lbs.) were transported to the Pioneer Livestock Nutrition Center (PLNC) and randomly placed into individual pens with water and feed provided ad libitum. The pigs received a common diet for seven days. On the eighth day the pigs were weighed individually and a uniform group of sixty pigs with an average body weight of about 75 pounds was selected. The pigs were randomly assigned one of five dietary treatments with 12 pigs per treatment. The feeding trial was initiated on Mar. 12, 2002 and ended on Jun. 19, 2002. The pigs were fed a corn-soybean meal diet formulated to provide adequate levels of all nutrients. In addition, one of five dietary treatments was assigned to each group: control, 300 ppm AT, 450 ppm GT, 150 ppm MT, and 300 ppm MT. To each diet a corn oil premix and a ground corn premix were added with the corn oil premix as a carrier for the supplemental tocopherols and the ground corn premix as the carrier for the MT. The MT supplement was obtained commercially from Fuji Chemical Industries (U.S.A.) Inc. of Robbinsville, N.J., and contained 7.5% alpha-, 12.3% gamma- and 3.0% delta-tocotrienol, as well as 7.2% alpha-tocopherol. Trimmed bellies were collected to measure the effects of dietary treatments on ground pork oxidation rate. The bellies were ground through a meat grinder and mixed. Four one-pound samples of each ground belly were placed on a retail meat tray and covered with oxygen permeable film. On each of days 1, 7, 10 and 16 post-grinding, one of the trays was opened and a sample submitted for TBARS (thiobarbituric acid reactive substances) determination, a measure of the extent of oxidation.

In experiment [2] the test system is swine. The experiment is described as follows: 2002 swine feed test: sensory characteristics of cooked pork loin chops. The text has this:
Applicants conducted a second swine feeding trial to further determine the effects on meat quality of supplementation of a swine diet with alpha-tocopherol (AT), gamma-tocopherol (GT) or mixed tocotrienols (MT). Seventy-two barrows (˜75 lbs.) were transported to the Pioneer Livestock Nutrition Center (PLNC) and randomly placed into individual pens with water and feed provided ad libitum. The pigs received a common diet for seven days. On the eighth day the pigs were weighed individually and a uniform group of sixty pigs with an average body weight of about 75 pounds was selected. The pigs were randomly assigned one of five dietary treatments with 12 pigs per treatment. The feeding trial was initiated on Mar. 12, 2002 and ended on Jun. 19, 2002. The pigs were fed a corn-soybean meal diet formulated to provide adequate levels of all nutrients. In addition, one of five dietary treatments was assigned to each group: control, 300 ppm AT, 450 ppm GT, 150 ppm MT, and 300 ppm MT. To each diet a corn oil premix and a ground corn premix were added with the corn oil premix as a carrier for the supplemental tocopherols and the ground corn premix as the carrier for the MT. The MT supplement was obtained commercially from Fuji Chemical Industries (U.S.A.) Inc. of Robbinsville, N.J., and contained 7.5% alpha-, 12.3% gamma- and 3.0% delta-tocotrienol, as well as 7.2% alpha-tocopherol. A one-inch thick chop was collected from the 10th rib region of each pig carcass to evaluate the effects of dietary treatment on cooked product characteristics. Sensory evaluation was conducted using a trained sensory panel. Each panelist evaluated a ½ inch cube removed from the center of a cooked pork chop immediately after reaching 71 degrees C. Samples were evaluated for degree of juiciness, tenderness, chewiness, pork flavor and off-flavor intensity.

For experiment [3], the system named is chickens. The experiment is described as follows: 2002 poultry feed test: TBARS content of cooked ground chicken breasts. The following applies: 300 ppm in diet. The text has this: (§1) Applicants also assessed the effects of antioxidant supplementation on meat quality in an experiment in which meat from chickens fed one of four dietary treatments was compared. On Jul. 25, 2002, day-old chicks were obtained from a commercial company. The birds were housed in a brooder until Aug. 11, 2002. On Aug. 11, forty-eight birds were randomly allocated to one of four pens (twelve birds per pen). Birds in each pen were offered ad libitum access to one of four treatment diets: control, 300 ppm AT, 300 ppm GT or 150 ppm MT. The MT premix contained a commercially available MT supplement (7.5% alpha-, 12.3% gamma- and 3.0% delta-tocotrienol and 7.2% alpha-tocopherol) mixed with ground corn as the carrier. The total MT premix (ground corn plus MT supplement) represented 2.5% w/w of the finished MT supplemented feed.
(§2) On Sep. 13, 2002 (seven weeks of age) the birds were harvested, identified and frozen at −20C. The birds were stored frozen at −20C for 136-159 days post slaughter. On days 136, 156, 157, 158 and 159 (where available) two birds per dietary treatment were thawed in cold water. Meat was removed from the breasts (pectoralis major muscles) and thighs. Breast meat from each chicken was ground through a 3 mm disc in a Krups Butcher Shop 150W Professional Power Meat Grinder. Thigh meat from two chickens was combined (for days 156, 157, 158 and 159; day 136 thigh meat was kept separate for each bird) and ground in a similar manner. Patties were made (10 g for breast; 60 g for thighs) using a 100×15 mm Petri dish as a mold.
(§3) Raw ground chicken breast and thigh patties were cooked in a pre-warmed George Foreman grill for five minutes per breast patty and four minutes per thigh patty. Cooked patties were allowed to cool under refrigeration and then quartered (day 136) or halved (days 156, 157, 158 and 159). Each quarter or half was stored at 2.2C in zip lock baggies for a designated period of time. One quarter was used per sampling period. Sampling periods were 0 hours, 4 hours, 26 hours and 48 hours. Thiobarbituric acid reacting substances (TBARS) analyses was performed according to Ahn et al., and the results are shown in the following two tables.

Experiment [4] has as its system chickens. The experiment is described as follows: 2002 poultry feed test: TBARS content of cooked ground chicken thighs. The following applies: 300 ppm in diet.
Description: as §1, §2, §3

[5] abbreviates: scale of 1 to 10, 300 ppm in diet.
The mark [6] stands for this setting: scale of 1 to 10, 450 ppm in diet.

On to `Cc1c(C)c2c(c(C)c1O)CC[C@@](C)(CCC[C@H](C)CCC[C@H](C)CCCC(C)C)O2` [AT, alpha-tocopherol], for which the TBARS content is 0.13 mg Malonaldehyde/kg sample in experiment [1] (Day 1 post-grinding, 300 ppm in diet); 0.18 mg Malonaldehyde/kg sample in experiment [1] (Day 7 post-grinding, 300 ppm in diet); 0.34 mg Malonaldehyde/kg sample in experiment [1] (Day 10 post-grinding, 300 ppm in diet); 1.46^ab mg Malonaldehyde/kg sample in experiment [1] (Day 16 post-grinding, 300 ppm in diet); 0.3067 mg Malonaldehyde/kg sample in experiment [3] (0 hours at 2.2C); 0.4354^b mg Malonaldehyde/kg sample in experiment [3] (4 hours at 2.2C). The TBARS content is reported as 0.3366^b mg Malonaldehyde/kg sample in experiment [3] (26 hours at 2.2C); 0.4433^b mg Malonaldehyde/kg sample in experiment [3] (48 hours at 2.2C); 0.4568^b mg Malonaldehyde/kg sample in experiment [4] (0 hours at 2.2C); 0.8954^d mg Malonaldehyde/kg sample in experiment [4] (4 hours at 2.2C); 0.8968^d mg Malonaldehyde/kg sample in experiment [4] (26 hours at 2.2C); 1.1669^d mg Malonaldehyde/kg sample in experiment [4] (48 hours at 2.2C). In experiment [2] (setting [5]), this compound had a Chewiness of 2.3. In experiment [2] (setting [5]), this compound gave a Juiciness of 6.0. The Off-flavor in experiment [2] (setting [5]) amounted to 4.3. Moreover, the “Pork Flavor” value in experiment [2] (setting [5]) worked out at 1.8. Further, the Tenderness in experiment [2] (setting [5]) is on record as 7.8.

As for `Cc1c(O)cc2c(c1C)O[C@](C)(CCC[C@H](C)CCC[C@H](C)CCCC(C)C)CC2` [GT, gamma-tocopherol], the TBARS content is given as 0.19 mg Malonaldehyde/kg sample in experiment [1] (Day 1 post-grinding, 450 ppm in diet); 0.17 mg Malonaldehyde/kg sample in experiment [1] (Day 7 post-grinding, 450 ppm in diet); 0.32 mg Malonaldehyde/kg sample in experiment [1] (Day 10 post-grinding, 450 ppm in diet); 1.01^b mg Malonaldehyde/kg sample in experiment [1] (Day 16 post-grinding, 450 ppm in diet); 0.3809 mg Malonaldehyde/kg sample in experiment [3] (0 hours at 2.2C); 0.3443^b mg Malonaldehyde/kg sample in experiment [3] (4 hours at 2.2C). Further, the TBARS content is listed as 0.4559^b mg Malonaldehyde/kg sample in experiment [3] (26 hours at 2.2C); 0.6120^b mg Malonaldehyde/kg sample in experiment [3] (48 hours at 2.2C); 0.4839^b mg Malonaldehyde/kg sample in experiment [4] (0 hours at 2.2C); 0.6715^d mg Malonaldehyde/kg sample in experiment [4] (4 hours at 2.2C); 1.2515^d mg Malonaldehyde/kg sample in experiment [4] (26 hours at 2.2C); 1.6312^d mg Malonaldehyde/kg sample in experiment [4] (48 hours at 2.2C). In experiment [2] (setting [6]), the Chewiness was 2.5. Also, the Juiciness in experiment [2] (setting [6]) was found to be 5.4. The same compound had an Off-flavor in experiment [2] (setting [6]) of 3.9. The “Pork Flavor” value in experiment [2] (setting [6]) is on record as 1.8. Besides, the Tenderness in experiment [2] (setting [6]) amounted to 7.3.
